The values below come from patent US10106557B2, “Preparation method for benzoxazoleoxazine ketone compound and intermediate and crystal form thereof” (NORTH CHINA PHARMACEUTICAL NEW DRUG R & D CO., LTD., priority 2014, dated 2018).

Common to all, as to type: biochemical
In assay [1] the target is human coagulation factor Xa (Homo sapiens (Human), UniProt P00742). Briefly: Human coagulation factor Xa chromogenic assay. The following applies: purified enzyme, substrate S-2222, 37° C.; Ki from IC50 by Cheng-Prusoff; read-out: hfXa Ki. On the procedure:
(§1) The inhibitory ability of the compounds to be tested on Xa factor or other enzymes, such as thrombin or trypsin, in human or rats were determined by IC50 values, wherein the IC50 value was associated with the inhibition constant Ki. The purified enzyme was used in the chromogenic determination. The initial rate of hydrolysis of the chromogenic substrate was determined by the variation of absorbance at 405 nm in the linear part on time (usually 2 to 10 minutes after the addition of the substrate) at 37° C. by using FlexStation III (USA Molecular Instruments). By plotting a curve regarding the relative velocity of the hydrolysis (compared to the control group which was free of inhibition) on the logarithm of the concentration of the compounds and linear regression calculation, the concentration of the inhibitor leading to a 50% reduction of the rate of the hydrolysis of the substrate was determined. The enzyme inhibition constant (Ki) was calculated according to Cheng-Prusoff equation: Ki=IC50/(1+[S]/Km), where [S] was the substrate concentration and Km was the meter-Mann's constant determined by the double reciprocal mapping method. The IC50 values of the compounds were obtained by GraphPad Prism software. The curve is fitted by using the “shaped dose effect (variable slope)”.
The inhibitory activity on coagulation factor Xa activity in human or rats was measured by using Tris-HCl buffer (50 mM, pH 8.3, 150 mM NaCl). […] The buffer containing 2 μL 2% (V/V) DMSO (control group which was free of inhibition) or various concentrations of the compounds to be tested were diluted in the buffer containing 2% (V/V) DMSO, and 48 μL buffer of the supporting base S-2222 (Chromogenix; chemical formula: Bz-IIe-Glu(γ-OR)-Gly-Arg-pNA.HCl R═H (50%), wherein R═CH3 (50%)) was added, the final concentration was 0.172 mM.

Assay [2] has as its target rat coagulation factor Xa (Rattus norvegicus (Rat), UniProt Q63207). Put plainly: Rat coagulation factor Xa chromogenic assay. To be noted: purified enzyme, substrate S-2222, 37° C.; Ki from IC50 by Cheng-Prusoff; read-out: rfXa Ki. The method, then: (§2) The inhibitory ability of the compounds to be tested on Xa factor or other enzymes, such as thrombin or trypsin, in human or rats were determined by IC50 values, wherein the IC50 value was associated with the inhibition constant Ki. The purified enzyme was used in the chromogenic determination. […] By plotting a curve regarding the relative velocity of the hydrolysis (compared to the control group which was free of inhibition) on the logarithm of the concentration of the compounds and linear regression calculation, the concentration of the inhibitor leading to a 50% reduction of the rate of the hydrolysis of the substrate was determined. The enzyme inhibition constant (Ki) was calculated according to Cheng-Prusoff equation: Ki=IC50/(1+[S]/Km), where [S] was the substrate concentration and Km was the meter-Mann's constant determined by the double reciprocal mapping method. The IC50 values of the compounds were obtained by GraphPad Prism software. The curve is fitted by using the “shaped dose effect (variable slope)”.
The inhibitory activity on coagulation factor Xa activity in human or rats was measured by using Tris-HCl buffer (50 mM, pH 8.3, 150 mM NaCl).

A further assay deals with human thrombin (Homo sapiens (Human), UniProt P00734). Put plainly: Human thrombin assay. The following applies: substrate S-2238; Ki from IC50 by Cheng-Prusoff. The method, then: as §1
The inhibitory activity on human thrombin was determined by using a buffer (10 mM HEPES buffer, pH 7.4, 2 mM CaCl2). Appropriate wells in the Greiner 384 microtiter plate were used to determine IC50. A buffer contained 50 μL human thrombin (Sigma; T8885), the final concentration of which was 0.05 NIH unit/mL. A buffer containing 2 μL 2% (V/V) DMSO (control group which was free of inhibition) or various concentration of the compound to be tested was diluted in the buffer containing 2% (V/V) DMSO. A buffer containing 48 μL substrate S-2238 (Chromogenix; Chemical formula: H-D-Phe-Pip-Arg-pNA.2HCl) was added, the final concentration was 30 μM. In this assay, the compound to be tested and the enzyme were pre-incubated for 10 minutes, the substrate was added to give a final volume of 100 μL to start the assay.

A further assay concerns the target human trypsin. Put plainly: Human trypsin assay. To be noted: substrate S-2222; Ki from IC50 by Cheng-Prusoff. The method, then:
as §1
The inhibitory activity on human trypsin was determined by using buffer (50 mM Tris, pH 8.2, and 20 mM CaCl2). Appropriate wells in the Greiner 384 microtiter plate were used to determine IC50. A buffer containing 50 μL human trypsin (Sigma; T6424), the final concentration was 0.39 BAEE unit/mL, a buffer containing 2 μL 2% (V/V) DMSO (control group which was free of inhibition) or various concentration of the compound to be tested was diluted in the buffer containing 2% (V/V) DMSO. A buffer containing substrate S-2222 (Chromogenix), the final concentration was 30 μM. In this assay, the compound to be tested and the enzyme were pre-incubated for 10 minutes and then 48 μL substrate was added to give a final volume of 100 μL to start the assay.

The target of a further assay is prothrombinase (Homo sapiens (Human), UniProt P00742). Put plainly: Prothrombin assay (prothrombinase, thrombin production). The following applies: human factor Xa, human blood platelets, substrate S-2238. The method, then: as §2
Chain of prothrombinase (P00742 235-488): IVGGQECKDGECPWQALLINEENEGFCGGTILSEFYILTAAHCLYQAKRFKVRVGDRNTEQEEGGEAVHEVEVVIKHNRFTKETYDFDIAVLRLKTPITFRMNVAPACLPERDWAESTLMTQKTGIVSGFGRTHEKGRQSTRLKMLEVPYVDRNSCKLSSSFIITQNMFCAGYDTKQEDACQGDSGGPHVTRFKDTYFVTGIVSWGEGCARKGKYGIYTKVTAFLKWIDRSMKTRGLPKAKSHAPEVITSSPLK
Chain of prothrombinase (P00742 41-179): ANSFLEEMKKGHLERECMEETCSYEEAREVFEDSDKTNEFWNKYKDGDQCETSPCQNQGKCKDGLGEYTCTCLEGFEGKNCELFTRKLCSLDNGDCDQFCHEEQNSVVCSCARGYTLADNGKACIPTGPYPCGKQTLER
Chain of prothrombinase (P12259 29-737 partner): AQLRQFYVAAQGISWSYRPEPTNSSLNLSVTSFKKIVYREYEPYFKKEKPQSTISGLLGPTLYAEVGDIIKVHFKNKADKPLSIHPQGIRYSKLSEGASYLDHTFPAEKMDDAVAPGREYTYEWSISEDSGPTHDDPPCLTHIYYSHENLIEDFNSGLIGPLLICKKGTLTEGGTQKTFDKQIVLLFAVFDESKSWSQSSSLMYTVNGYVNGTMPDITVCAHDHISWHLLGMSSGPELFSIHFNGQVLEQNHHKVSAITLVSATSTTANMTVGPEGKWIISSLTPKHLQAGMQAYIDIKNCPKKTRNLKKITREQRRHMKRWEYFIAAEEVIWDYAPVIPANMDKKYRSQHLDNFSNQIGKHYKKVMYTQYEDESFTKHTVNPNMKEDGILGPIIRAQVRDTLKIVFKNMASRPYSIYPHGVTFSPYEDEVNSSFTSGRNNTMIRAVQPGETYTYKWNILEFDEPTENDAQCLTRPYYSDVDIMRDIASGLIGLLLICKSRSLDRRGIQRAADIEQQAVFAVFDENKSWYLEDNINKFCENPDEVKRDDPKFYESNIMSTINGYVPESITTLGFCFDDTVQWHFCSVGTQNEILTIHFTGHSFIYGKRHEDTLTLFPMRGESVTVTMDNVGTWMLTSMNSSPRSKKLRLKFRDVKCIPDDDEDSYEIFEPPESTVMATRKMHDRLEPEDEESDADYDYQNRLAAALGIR
Chain of prothrombinase (P12259 1574-2224 partner): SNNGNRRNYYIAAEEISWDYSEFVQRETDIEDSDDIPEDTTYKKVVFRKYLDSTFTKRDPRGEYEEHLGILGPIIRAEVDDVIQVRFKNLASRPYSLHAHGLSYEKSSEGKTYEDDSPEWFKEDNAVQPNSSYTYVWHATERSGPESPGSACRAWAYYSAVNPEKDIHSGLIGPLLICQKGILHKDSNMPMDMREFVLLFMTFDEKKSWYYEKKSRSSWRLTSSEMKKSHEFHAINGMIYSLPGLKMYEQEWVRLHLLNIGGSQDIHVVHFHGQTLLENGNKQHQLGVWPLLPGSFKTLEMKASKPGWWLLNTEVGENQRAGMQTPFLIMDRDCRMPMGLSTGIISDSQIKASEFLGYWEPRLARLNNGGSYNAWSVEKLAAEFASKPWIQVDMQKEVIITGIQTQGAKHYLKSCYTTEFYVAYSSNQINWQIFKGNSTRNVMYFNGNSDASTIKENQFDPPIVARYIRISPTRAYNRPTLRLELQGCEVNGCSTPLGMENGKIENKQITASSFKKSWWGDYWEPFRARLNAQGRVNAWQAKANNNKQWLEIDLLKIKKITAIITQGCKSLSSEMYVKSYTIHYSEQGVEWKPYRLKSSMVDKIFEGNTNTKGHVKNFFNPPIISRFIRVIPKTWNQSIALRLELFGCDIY
The activity of the compound to be tested against prothrombinase was determined by the production of thrombin. In summary, 12.5 μL human factor Xa was incubated in 10 mM HEPES buffer and pH 7.4, 2 mM CaCl2, the final concentration was 0.5 nM, and 12.5 μL human blood platelets (1×10^7 mL^−1) was added at 37° C. After 10 mins, 25 μL prothrombin was added to initiate the reaction, the final concentration was 0.5 μM, a buffer containing 2 μL 2% (V/V) DMSO (control group which was free of inhibition) or various concentration of the compound was diluted in the buffer containing 2% (V/V) DMSO.

Chain of rat coagulation factor Xa (Q63207 232-482): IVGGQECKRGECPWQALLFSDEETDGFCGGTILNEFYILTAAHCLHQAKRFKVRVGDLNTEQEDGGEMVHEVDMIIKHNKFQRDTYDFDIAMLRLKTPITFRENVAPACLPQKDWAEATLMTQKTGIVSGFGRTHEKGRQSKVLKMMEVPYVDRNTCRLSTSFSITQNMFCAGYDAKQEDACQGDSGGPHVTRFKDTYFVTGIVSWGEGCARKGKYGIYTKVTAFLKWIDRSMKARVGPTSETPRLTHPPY
Chain of rat coagulation factor Xa (Q63207 41-180): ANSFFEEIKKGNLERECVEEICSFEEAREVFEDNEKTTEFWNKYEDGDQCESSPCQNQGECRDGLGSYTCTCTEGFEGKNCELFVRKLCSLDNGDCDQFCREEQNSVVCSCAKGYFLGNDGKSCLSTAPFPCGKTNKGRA
Chain of human coagulation factor Xa (P00742 235-488): as the sequence (P00742 235-488) above
Chain of human coagulation factor Xa (P00742 41-179): as the sequence (P00742 41-179) above

Turning to `O=C(NC[C@@H]1OC(=O)N2c3ccc(N4CCOCC4=O)cc3OC[C@@H]12)c1ccc(Cl)s1` [Compound 1, 5-chloro-N-(((3S,3aS)-1-one-7-(3-ketomorpholine)-1,3,3a,4-tetrahydrobenzo[b]oxazolo[3,4-d][1,4]oxazin-3-yl)methyl)thiophene-2-carboxamide], the Ki (commonly the dissociation constant of the complex between target and ligand, obtained from inhibition or displacement) in assay [1] is 1.01 nM; in assay [2] it was 2.87 nM; on human thrombin, over 1000 nM; on human trypsin, over 20000 nM; at prothrombinase, 0.47 nM.

For the compound `O=C(NC[C@@H]1OC(=O)N2c3ccc(N4CCCCC4=O)cc3OC[C@@H]12)c1ccc(Cl)s1` [Compound 2], the values for the Ki (in assay [2]; on human thrombin; at human trypsin) were 4.45 nM, over 1000 nM and over 20000 nM, respectively.

For the compound `O=C(NC[C@@H]1OC(=O)N2c3ccc(N4CCCNC4=O)cc3OC[C@@H]12)c1ccc(Cl)s1` [Compound 7], the inhibition constant Ki was 4.13 nM in assay [1]; 16.5 nM in assay [2]; over 1000 nM at human thrombin; over 20000 nM on human trypsin; 4.41 nM on prothrombinase.

With `O=C(NC[C@@H]1OC(=O)N2c3ccc(-n4ccccc4=O)cc3OC[C@@H]12)c1ccc(Cl)s1` [Compound 8], the Ki in assay [1] was 1.92 nM; in assay [2], 3.17 nM; at human thrombin it was over 1000 nM; on human trypsin it was over 20000 nM; on prothrombinase it was 0.9 nM.

Turning to `COC[C@H]1CCCN1c1ccc2c(c1)OC[C@H]1[C@H](CNC(=O)c3ccc(Cl)s3)OC(=O)N21` [Compound 30], the inhibitory constant (Ki) in assay [1] is 9.71 nM; in assay [2] it was 21.5 nM; on human thrombin it was over 1000 nM; at human trypsin, over 20000 nM; at prothrombinase, 16.2 nM.

As to `O=C(NC[C@@H]1OC(=O)N2c3ccc(-n4cncn4)cc3OC[C@@H]12)c1ccc(Cl)s1` [Compound 34], the Ki in assay [1] came to 106 nM.
